Laboratory results as given in publication PMC11178805, “Ligand-based design of [^18F]OXD-2314 for PET imaging in non-Alzheimer’s disease tauopathies” (Nature Communications, 2024).

Assays:
[1] = target: 3R/4R-tau aggregates in AD tissue (Homo sapiens, UniProt P10636); experiment: Competition binding vs [^3H]OXD-2314 in AD tissue
Procedure: (§1) Fresh frozen, autopsy-confirmed human PD anterior cingulate cortex brain tissue blocks (1 cm^3) were obtained from Dr. Thomas Beach at Banner/Sun Health AZ with funding from the Michael J. Fox Foundation and contained frequent α-synuclein aggregates and no other detectable aggregated amyloid species. The frozen tissue blocks were prepared for the binding assays as previously described[47],[48], except that equal quantities of the homogenates of three AD brains (AD1-AD3, Table S1) were pooled, as were homogenates from three PSP brains (PSP1-PSP3), three CBD brains (CBD1-CBD3), three Pick’s brains (PiD1-PiD3), and 4 PD brains (PD1-PD4) in order to help minimize the inter-subject variability within the different neuropathological groups. Individual subcortical brain tissues from a PSP subject (PSP4) and a CBD subject (CBD4), as well as with the middle frontal cortex of a control subject, were prepared for the binding assays as previously described[47],[48].
(§2) The equilibrium inhibition constant (Ki) values of the unlabeled compounds were determined versus tritium-labeled radioligands using published methods.

[2] = target: T1, 4R-tau aggregates in CBD tissue (Homo sapiens, UniProt P10636); experiment: Competition binding vs [^3H]OXD-2115 in CBD tissue; conditions: vs [^3H]OXD-2115, CBD tissue, n = 1
T1 construct: tissue Neurodegenerative Disease Brain Bank at UCSF; host or cells: human CBD brain, middle frontal gyrus (pool of three) or putamen (one subject)
T1 sequence (P10636 1-441 isoform P10636-8): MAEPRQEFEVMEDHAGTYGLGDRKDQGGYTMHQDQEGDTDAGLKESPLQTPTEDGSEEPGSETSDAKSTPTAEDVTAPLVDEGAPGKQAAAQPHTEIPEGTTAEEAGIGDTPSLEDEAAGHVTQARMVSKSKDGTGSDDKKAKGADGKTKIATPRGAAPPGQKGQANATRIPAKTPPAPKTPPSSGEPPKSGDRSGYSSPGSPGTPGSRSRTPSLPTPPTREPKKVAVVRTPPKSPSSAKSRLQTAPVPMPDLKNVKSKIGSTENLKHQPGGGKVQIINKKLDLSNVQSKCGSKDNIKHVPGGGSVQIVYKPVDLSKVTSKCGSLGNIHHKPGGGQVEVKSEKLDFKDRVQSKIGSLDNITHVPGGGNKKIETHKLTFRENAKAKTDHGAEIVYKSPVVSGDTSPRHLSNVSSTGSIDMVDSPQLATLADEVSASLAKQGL
Procedure: as §1, §2

[3] = target: T2, 3R-tau aggregates in PiD tissue (Homo sapiens, UniProt P10636); experiment: Competition binding vs [^3H]OXD-2314 in PiD tissue
T2 construct: tissue Neurodegenerative Disease Brain Bank at UCSF; host or cells: human PiD brain, middle frontal gyrus, pooled homogenate of three brains
T2 sequence (P10636 1-410 isoform P10636-5): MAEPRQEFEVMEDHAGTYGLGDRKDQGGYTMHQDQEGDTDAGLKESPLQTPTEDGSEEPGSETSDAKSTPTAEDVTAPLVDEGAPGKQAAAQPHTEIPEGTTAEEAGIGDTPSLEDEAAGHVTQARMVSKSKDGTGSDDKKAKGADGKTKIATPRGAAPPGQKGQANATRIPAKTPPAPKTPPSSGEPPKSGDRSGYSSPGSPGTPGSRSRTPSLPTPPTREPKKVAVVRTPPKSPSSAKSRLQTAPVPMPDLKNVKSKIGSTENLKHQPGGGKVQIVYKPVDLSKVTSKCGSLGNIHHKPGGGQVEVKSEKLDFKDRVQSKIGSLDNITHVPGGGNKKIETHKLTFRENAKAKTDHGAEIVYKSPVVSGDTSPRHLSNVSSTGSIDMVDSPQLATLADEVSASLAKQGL
Procedure: as §1, §2

5-lipoxygenase = target: T3, 5-lipoxygenase (Homo sapiens, UniProt P09917); experiment: In vitro pharmacology enzyme screen (Eurofins): 5-lipoxygenase; type: biochemical
T3 construct: purchased Eurofins, France (contract screening)
T3 sequence (P09917 1-674): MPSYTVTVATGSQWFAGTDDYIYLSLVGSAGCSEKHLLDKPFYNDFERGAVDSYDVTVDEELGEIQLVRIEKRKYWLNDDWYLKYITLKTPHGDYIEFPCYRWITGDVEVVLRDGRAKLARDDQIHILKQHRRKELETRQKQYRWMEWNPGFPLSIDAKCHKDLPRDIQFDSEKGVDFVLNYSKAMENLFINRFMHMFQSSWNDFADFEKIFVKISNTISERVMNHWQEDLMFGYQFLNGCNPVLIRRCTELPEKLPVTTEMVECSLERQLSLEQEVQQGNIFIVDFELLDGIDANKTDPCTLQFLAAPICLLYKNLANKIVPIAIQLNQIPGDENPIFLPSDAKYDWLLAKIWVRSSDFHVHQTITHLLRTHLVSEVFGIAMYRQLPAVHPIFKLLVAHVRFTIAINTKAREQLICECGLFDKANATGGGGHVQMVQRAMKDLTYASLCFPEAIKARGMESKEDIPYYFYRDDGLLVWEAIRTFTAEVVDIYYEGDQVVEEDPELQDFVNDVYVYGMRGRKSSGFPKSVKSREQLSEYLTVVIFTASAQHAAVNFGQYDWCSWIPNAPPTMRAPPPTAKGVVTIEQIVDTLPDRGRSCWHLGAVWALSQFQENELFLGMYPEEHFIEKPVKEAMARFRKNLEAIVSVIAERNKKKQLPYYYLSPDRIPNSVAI
Procedure: OXD-2314 binding to CNS receptors was calculated as a percentage of inhibition of a receptor-specific radioligand. Enzyme inhibition was calculated as the percent inhibition of baseline enzyme activity where inhibition above 50% was considered significant. […] Norepinephrine transports are expressed in low concentration throughout the brain and its relative concentration are not affected by aging or neurodegeneration. 5-lipoxygenase may be overexpressed in aging brain and play some role in neurodegeneration, which could be necessary to further investigate in vivo[42]. Off-target binding to monoamine oxidase A and B (MAO-A and MAO-B) has been seen with some tau PET radiotracers[43],[44].

[4] = Dynamic PET imaging with [^18F]OXD-2314 in rhesus macaque (baseline and displacement); type: in vivo
Procedure: Dynamic PET imaging was performed in a rhesus macaque (macaca mulatta) monkey following the injection of [^18F]OXD-2314 at baseline (104.9 MBq, n = 1) and was repeated in a second [^18F]OXD-2314 study (115.8 MBq, n = 1) where a displacing dose of unlabeled OXD-2314 (0.5 mg/kg) was administered 10 min after [^18F]OXD-2314 injection to verify the absence of specific binding in NHP brain. Venous blood samples were drawn to characterize the metabolic fate of [^18F]OXD-2314 in the macaque. Dynamic [^18F]OXD-2314 PET imaging was also performed in a male (106.6 MBq, n = 1) and a female (115.8 MBq, n = 1) baboon (papio anubis), and venous blood samples were drawn in both baboons to characterize potential effects of sex on radiometabolism. Bilateral regions of interest were defined on 5–8 contiguous axial image planes for the lateral temporal cerebral cortex, cerebellum, striatum, and whole brain, which were used to sample dynamic [^18F]OXD-2314 PET images to determine the time-varying radioactivity concentration expressed in SUV units. [^18F]OXD-2314 readily entered macaque brain (whole brain peak ~2.2 SUV at ~2 min) and distributed uniformly throughout cortical and subcortical grey matter regions (Fig. 5A). […] Radiometabolite analysis of macaque venous blood identified only one, polar radiometabolite, which increased from 37% at 10 min to 77% at 90 min post-injection and was not likely brain penetrant (Figs. S19, S20).
NHP imaging studies in a male (13 kg) macaca mulata monkey and male (25.7 kg) and female (14.2 kg) papio anubis baboons were carried out in accordance with the guidelines set forth by the Institutional Animal Care and Use Committee at the University of Pittsburgh. Additional details regarding the maintenance of an active environmental enrichment program for the housed NHPs are described in Supplemental Information. Dynamic [^18F]OXD-2314 PET imaging of the brains of the isoflurane anesthetized NHPs was performed using a Siemens Biograph mCT Flow 64-4 R PET/CT scanner ([…], maximum intrinsic spatial resolution of 4.3 mm FWHM[53]. Following a low-dose CT scan for attenuation correction of PET emission data, [^18F]OXD-2314 was injected intravenously and emission data were acquired in list-mode for a period of 90 min. Emission data were binned into a dynamic series of 32 frames (20 sec-10 min) and reconstructed using filtered back projection with Fourier rebinning (FORE + FBP) with standard corrections applied that included attenuation, scatter, electronics dead-time, and physical decay.

Chain of 3R/4R-tau aggregates in AD tissue (P10636 623-758 limits assumed): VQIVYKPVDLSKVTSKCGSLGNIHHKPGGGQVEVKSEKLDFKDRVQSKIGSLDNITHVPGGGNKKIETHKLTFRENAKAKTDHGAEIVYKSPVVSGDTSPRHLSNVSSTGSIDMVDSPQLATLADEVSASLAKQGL

| Compound | Ki [1] [nM] | Ki [2] [nM] | Ki [3] [nM] | inhibition at 10 µM (5-lipoxygenase) [%] | initial brain uptake ([4]; NHP) [SUV] | ratio initial maximum to late minimum brain radioactivity ([4]; NHP) | 2:90 min radioactivity concentration ratio ([4]; macaque whole brain) | time of whole brain peak ([4]; macaque, baseline) | whole brain clearance half-time ([4]; macaque, baseline) | whole brain peak uptake ([4]; macaque, baseline, n = 1) |
| --- | --- | --- | --- | --- | --- | --- | --- | --- | --- | --- |
| COC1CCCN(c2ccc(-c3cc4cc(O)ccc4[nH]3)c(F)n2)C1 (stereo not shown) [OXD-2314, 2-(2-fluoro-6-(3-methoxypiperidin-1-yl)pyridin-3-yl)-1H-indol-5-ol] | 4.8 ± 0.3 | 4.4 | 5.5 ± 0.5 | 50.1 |  |  |  |  |  |  |
| CO[C@H]1CCCN(c2ccc(-c3cc4cc(O)ccc4[nH]3)c([18F])n2)C1 [[^18F]OXD-2314] |  |  |  |  | > 2 | ~ 4 | 3.9 | ~ 2 min | ~ 22 min | ~ 2.2 SUV |
